One assay relates to IL-12p70. Kind of assay: Cytokine release after LPS induction on human whole blood: IL-12p70. The format is cell-based.
The target in another assay is T1, VEGF-A (Homo sapiens, UniProt P15692).
T1 construct: purchased ProQinase GmbH
T1 sequence (P15692 27-191 isoform P15692-4): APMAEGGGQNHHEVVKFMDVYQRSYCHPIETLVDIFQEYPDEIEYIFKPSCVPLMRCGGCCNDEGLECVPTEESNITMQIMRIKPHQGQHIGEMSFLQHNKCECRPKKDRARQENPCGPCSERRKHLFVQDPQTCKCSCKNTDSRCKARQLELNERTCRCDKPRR
Kind of assay: VEGF-A induced sprouting of HUVEC, spheroid-based cellular angiogenesis assay. The format is cell-based. The conditions noted are these: VEGF-A 25 ng/mL preincubated with compound, 24 h, read-out: VEGF-A1 IC50. Summed up:
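Compound (final 100 down to 1.56×10^−6 M) was mixed with growth factor (final 25 ng/mL) for 30 min at 37°C, then added onto collagen-embedded 400-cell HUVEC spheroids.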

Assay [1] deals with STZ-induced diabetes model. As to the kind of experiment: STZ-induced diabetic nephropathy, kidney disease and retinopathy model (28 days treatment). The conditions noted are these: for Mean day 0 blood glucose Concentration (mmol/L) (SD) / Mean day 28 blood glucose Concentration (mmol/L) (SD) / Blood BUN / Disease Score (kidney, H&E) / Eye area (retinal flatmount area covered by vasculature) / Trichrome staining (Kidney fibrosis) / Blood CRP / Blood IL-6 / Blood TGF-beta / Blood TNF-alpha / Urine albumine creatinine ratio (ALB:CRE): 15 mg/kg IV, Captopril 50 mg/kg PO; for Blood BUN / Disease Score (kidney, H&E) / Eye area (retinal flatmount area covered by vasculature) / Trichrome staining (Kidney fibrosis) / Blood CRP / Blood IL-6 / Blood TGF-beta / Blood TNF-alpha / Urine albumine creatinine ratio (ALB:CRE): day 28 of treatment (week 9); for Blood CRP / Blood IL-6 / Blood TGF-beta / Blood TNF-alpha: serum; for Urine albumine creatinine ratio (ALB:CRE): urine pooled per group; for Serum CRP: 28 days of treatment, vs vehicle induced controls; for Serum TNF-α: p<0.05.
Protocol: A total of 70 female CD-1 mice aged 5-7 weeks weighing approximately 25-30 g were used for the study. These were purchased from Charles River, UK and had 7 days acclimatization period. Animals were housed in IVC cages (up to 5 per cage) with individual mice identified by tail mark. All animals were allowed free access to a standard certified commercial diet and sanitised water during the study. The holding room was maintained under standard conditions: 18-24° C., 55-70% humidity and a 12 h light/dark cycle.
Mice were starved for 6 hours prior to injection. One week after completion of induction glucose levels were monitored and mice with levels less than 15 mml/L (280 mg/gL) were removed from the study as they had not developed the ideal severity of diabetes. Glucose levels were be monitored weekly and 5 weeks after STZ induction biochemical assessment of renal injury was carried out by measuring urine albumin and creatinine levels and confirming they were within the desired range. After successful completion of this stage animals were assigned to treatment groups.
Treatment continued for 4 weeks (28 days) with weekly measurement of blood glucose and urine albumin/creatinine. The study schedule is detailed below looking at weekly (week 5 to 9) blood glucose levels, urine albumin creatinie ratios, and terminal (week 9) blood chemistry and cytokines, kidney histology and eye-retinal leakage.
Urine Albumin: Creatinine (ALB: CRE): Urine was collected weekly and pooled for each treatment group.
ELISAs: At the end of the treatment period blood was collected and processed to serum. Serum levels of CRP, TGF-β, IL-6 and TNF-α were quantified using commercially available ELISA kits, results are shown in Table 56.

The mark [2] stands for this setting: Homo sapiens, LPS 10 ng/ml, 18 h, read-out: Whole Blood: IL-12p70 IC50.
Where [3] appears, read: human whole blood, inhibition of LPS induced inflammation, read-out: IC50 IL-12p70.

Read-outs that look alike come from different tables or passages of the source.

Take `O=C(O)c1cc(O)cc(CS(=O)(=O)Cc2cc(O)cc(C(=O)O)c2O)c1O` [IVc-059a, 3-((2,5-Dihydroxy-3-carboxyphenyl)methylsulfonylmethyl)-2,5-dihydroxybenzoic acid]: the half-inhibitory concentration (IC50) (commonly the concentration that gives 50% inhibition) in the assay with IL-12p70 (setting [2]) was 42 µM. In the assay on IL-12p70 (setting [3]), the 50% inhibitory concentration (IC50) is 42 µM. Moreover, the IC50 at VEGF-A stood at 12 µM. Besides, the Retina vasculature coverage result in assay [1] (28 days, retinal flat mounts, FITC-dextran) is on record as “significantly decreased”. Also, the “Kidney collagen levels (Masson's Trichrome)” value in assay [1] (28 days, vs induced vehicle controls) is on record as “significantly decreased”. The “Blood glucose levels on day 28” value in assay [1] (IV, vs induced vehicle controls) was “significant reduction”. Moreover, in assay [1], the “Mean day 0 blood glucose Concentration (mmol/L) (SD)” value is 24.3 (6.4) mmol/L; the “Blood BUN” value was 22.5 ± 2.8; the “Disease Score (kidney, H&E)” value turned out to be 7 ± 1; the “Eye area (retinal flatmount area covered by vasculature)” value (“Eye area” below) is given as 8.7 ± 1.2. In assay [1], the “Trichrome staining (Kidney fibrosis)” value worked out at 1.48 ± 0.73, the “Blood CRP” value is recorded as 5691 ± 1395, the “Blood IL-6” value turned out to be 120.88 ± 23.05 and the “Blood TGF-beta” value is reported as 13.47 ± 3.33. In assay [1], the “Blood TNF-alpha” value is reported as 350.2 ± 41.4 and the “Urine albumine creatinine ratio (ALB:CRE)” value amounted to 18.85. For the same compound, the “Mean day 28 blood glucose Concentration (mmol/L) (SD)” value in assay [1] (day 28) is 23.7 (6.6) mmol/L. Besides, the “Blood urea nitrogen levels” value in assay [1] (day 28, vs induced vehicle controls) is on record as “significantly lower than induced vehicle controls”. Besides, the “Urine ALB:CREA” value in assay [1] (treatment day 28) is reported as “reduced”.
For the compound `COC(=O)c1cc(OC(C)=O)cc(CS(=O)(=O)Cc2cc(OC(C)=O)cc(C(=O)OC)c2OC(C)=O)c1OC(C)=O` [IVc-059a-E2-A4], the results for the IC50 in the assay on IL-12p70 (setting [2]), in the assay on IL-12p70 (setting [3]) and on VEGF-A were 51.4 µM, 51.4 µM and 25 µM, respectively.
Regarding `O=C(O)c1cc(O)c(C(=O)Nc2ccccc2C(=O)O)cc1O` [Ia-001a, 4-(2-carboxyphenylaminocarbonyl)-2,5-dihydroxybenzoic acid], the concentration for half-maximal inhibition (IC50) in the assay on IL-12p70 (setting [2]) amounted to 1.5 µM. Further, the IC50 in the assay on IL-12p70 (setting [3]) is 1.5 µM. For the same compound, the half-inhibitory concentration (IC50) at VEGF-A was found to be 7.3 µM. In assay [1], the “Serum CRP” value is “significantly reduced”; the “Mean day 0 blood glucose Concentration (mmol/L) (SD)” value is given as 25.7 (6.3) mmol/L; the “Blood BUN” value is recorded as 25.1 ± 3.1; the “Disease Score (kidney, H&E)” value was found to be 7 ± 1. Further, in assay [1], the “Eye area” value is 9.9 ± 1.9, the “Trichrome staining (Kidney fibrosis)” value is 1.87 ± 0.65, the “Blood CRP” value was found to be 4759 ± 1181 and the “Blood IL-6” value came out at 114.16 ± 29.96. Also, in assay [1], the “Blood TGF-beta” value is 15.54 ± 2.8, the “Blood TNF-alpha” value turned out to be 342.3 ± 15.6 and the “Urine albumine creatinine ratio (ALB:CRE)” value worked out at 35.68. Moreover, the “Serum TNF-α” value in assay [1] (28 days) is “significantly lower than vehicle induced controls”. Also, the “Mean day 28 blood glucose Concentration (mmol/L) (SD)” value in assay [1] (day 28) is listed as 31.6 (3.8) mmol/L.
Consider `O=C(O)c1cc(O)c(C(=O)Nc2ccccc2-c2nnn[nH]2)cc1O` [Ia-001a-Tz, 4-(2-(1H-tetrazol-5-yl)phenyl-aminocarbonyl)-2,5-dihydroxybenzoic acid], for which the IC50 with IL-12p70 (setting [2]) is 32.4 µM. Besides, in the assay on IL-12p70 (setting [3]), the half-inhibitory concentration (IC50) turned out to be 32.4 µM. Also, the IC50 on VEGF-A came to 17 µM. For the same compound, in assay [1], the “Serum CRP” value is “significantly reduced”; the “Mean day 0 blood glucose Concentration (mmol/L) (SD)” value is listed as 24.9 (7.4) mmol/L; the “Blood BUN” value is on record as 25.3 ± 3.1; the “Disease Score (kidney, H&E)” value stood at 8 ± 3. For the same compound, in assay [1], the “Eye area” value came out at 11.8 ± 1, the “Trichrome staining (Kidney fibrosis)” value was 2.6 ± 0.98, the “Blood CRP” value came out at 5191 ± 993 and the “Blood IL-6” value worked out at 112.35 ± 20.01. Besides, in assay [1], the “Blood TGF-beta” value is recorded as 14.76 ± 2.95, the “Blood TNF-alpha” value was 327 ± 40.7 and the “Urine albumine creatinine ratio (ALB:CRE)” value was found to be 29.86. The “Serum TNF-α” value in assay [1] (28 days) is given as “significantly lower than vehicle induced controls”. Further, the “Mean day 28 blood glucose Concentration (mmol/L) (SD)” value in assay [1] (day 28) is on record as 30.8 (6.2) mmol/L.
`O=C(O)c1cc(O)c(C(=O)Nc2ccccc2S(=O)(=O)O)cc1O` [Ia-001c, 2,5-dihydroxy-4-(2-sulfophenylaminocarbonyl)benzoic acid]: the IC50 in the assay on IL-12p70 (setting [2]) was 0.44 µM; in the assay with IL-12p70 (setting [3]), 0.44 µM; at VEGF-A it was not below 100 µM.
Take `O=C(O)c1cc(O)c(C(=O)Nc2ccc(-c3nnn[nH]3)cc2)cc1O` [Ia-003a-Tz, 4-(4-(1H-tetrazol-5-yl)phenyl-aminocarbonyl)-2,5-dihydroxybenzoic acid]: the values for the IC50 with IL-12p70 (setting [2]), with IL-12p70 (setting [3]) and on VEGF-A were 1.26 µM, 1.26 µM and 13 µM, respectively.
Take `O=C(O)c1cc(NC(=O)c2cc(O)c(C(=O)O)cc2O)cc(C(=O)O)c1` [Ia-015a, 5-(4-carboxy-2,5-dihydroxybenzamido)isophthalic acid]: the values for the concentration for half-maximal inhibition (IC50) in the assay with IL-12p70 (setting [2]), in the assay on IL-12p70 (setting [3]) and on VEGF-A were 0.12 µM, 0.12 µM and 19 µM, respectively.
Take `CCOC(=O)c1cc(NC(=O)c2cc(O)c(C(=O)OCC)cc2O)cc(NC(=O)c2cc(O)c(C(=O)OCC)cc2O)c1` [Ib-010a-E3, ethyl 3,5-bis(2,5-dihydroxy-4-ethoxycarbonylbenzoylamino)benzoate]: the IC50 in the assay on IL-12p70 (setting [2]) and in the assay with IL-12p70 (setting [3]) was 0.84 µM in each case.
Take `O=C(Nc1ccccc1-c1nnn[nH]1)c1cc(O)c(C(=O)Nc2ccccc2-c2nnn[nH]2)cc1O` [Ic-001aTz2, N1,N4-bis(2-(1H-tetrazol-5-yl)phenyl)-2,5-dihydroxyterephthalamide]: the 50% inhibitory concentration (IC50) with IL-12p70 (setting [2]) turned out to be 29.1 µM; on VEGF-A, 45 µM.
